Reference: patent US6534524B1, “Indazole compounds and pharmaceutical compositions for inhibiting protein kinases, and methods for their use” (Agouron Pharmaceuticals, Inc., priority 1999, dated 2003)
pIC50, pKi: −log10 of the molar value. Read-outs that look alike come from different tables or passages of the source.

Experiments:
human CHK1 (FL-CHK1) = target: T1, human CHK1 (FL-CHK1) (Homo sapiens, UniProt O14757); test: CHK1 assay (coupled spectrophotometric, Syntide-2); assay type: biochemical
T1 construct: C-terminally His-tagged full-length human CHK1 (FL-CHK1); made in house; host or cells: baculovirus/insect cell system
T1 sequence (O14757 1-476): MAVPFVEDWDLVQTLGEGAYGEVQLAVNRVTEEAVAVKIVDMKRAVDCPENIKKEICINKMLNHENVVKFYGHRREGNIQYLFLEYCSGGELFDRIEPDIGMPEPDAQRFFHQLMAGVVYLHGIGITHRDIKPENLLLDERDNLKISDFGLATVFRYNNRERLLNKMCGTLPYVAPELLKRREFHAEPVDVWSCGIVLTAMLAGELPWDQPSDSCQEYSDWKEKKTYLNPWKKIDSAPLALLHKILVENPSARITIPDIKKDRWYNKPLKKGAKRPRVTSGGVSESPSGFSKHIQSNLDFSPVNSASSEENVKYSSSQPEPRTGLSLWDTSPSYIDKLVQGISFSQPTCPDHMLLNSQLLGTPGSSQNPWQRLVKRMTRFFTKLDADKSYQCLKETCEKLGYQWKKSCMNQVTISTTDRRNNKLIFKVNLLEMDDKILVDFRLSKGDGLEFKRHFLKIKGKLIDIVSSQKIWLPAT
Outline: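 Full-length C-terminally His-tagged human CHK1 expressed in baculovirus/insect cells, used at 10 nM with Syntide-2 substrate. ADP formation coupled via PK/LDH to NADH oxidation, followed as absorbance decrease at 340 nm. Ki from initial rates at varying compound concentrations.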

CDK2/Cyclin A = CDK2/Cyclin A (Homo sapiens, UniProt P24941); test: CDK2/Cyclin A assay ([32P]ATP, Rb fragment); assay type: biochemical
[1] = test system: human umbilical vein endothelial cells (HUVEC); test: HUVEC proliferation assay (VEGF-stimulated, MTT); assay type: cell-based; settings: Homo sapiens, HUVEC
CDK4/Cyclin D3 complex = CDK4/Cyclin D3 complex (Homo sapiens, UniProt P11802); test: CDK4/Cyclin D assay ([32P]ATP, Rb fragment)
[2] = target: unphosphorylated VEGF-R2Δ50 (FLVK) (Homo sapiens, UniProt P35968, DEL940-989/E990V); test: VEGF-R2 coupled spectrophotometric assay, unphosphorylated VEGF-R2Δ50 (FLVK); settings: FLVK Ki, Table 1
[3] = target: phosphorylated VEGF-R2Δ50 (FLVK-P) (Homo sapiens, UniProt P35968, DEL940-989/E990V); test: VEGF-R2 coupled spectrophotometric assay, phosphorylated VEGF-R2Δ50 (FLVK-P)
human FGF-R1 = human FGF-R1 (Homo sapiens, UniProt P11362, C488A/C584S/L457V); test: FGF-R spectrophotometric assay
[4] = Human liver microsome (HLM) assay; assay type: in vitro ADME; settings: human liver microsomes, 5 μM test compound
Outline: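 LC-MS quantified test compound remaining after 0 and 2 h incubation with human liver microsomes. Triplicate samples, clarified by 10 min centrifugation at 14000 g.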

[5] = Determination of inhibitor concentration in mouse plasma after intraperitoneal and oral dosing; assay type: in vivo; settings: PO, 50 mg/kg, vehicle PEG400:H2O pH 2.3 60:40
Outline: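 Plasma levels quantified by HPLC or LC-MS using a standard curve prepared in mouse plasma, following ethyl acetate extraction with internal standard and sodium hydroxide. Sampling at 0.5, 1, 4 h (ocular bleed) and 7 h (cardiac puncture) after oral or intraperitoneal dosing.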

phosphorylated VEGF-R2Δ50 (FLVK-P), sequence (P35968 with tags, fused parts or gaps DEL940-989/E990V limits assumed): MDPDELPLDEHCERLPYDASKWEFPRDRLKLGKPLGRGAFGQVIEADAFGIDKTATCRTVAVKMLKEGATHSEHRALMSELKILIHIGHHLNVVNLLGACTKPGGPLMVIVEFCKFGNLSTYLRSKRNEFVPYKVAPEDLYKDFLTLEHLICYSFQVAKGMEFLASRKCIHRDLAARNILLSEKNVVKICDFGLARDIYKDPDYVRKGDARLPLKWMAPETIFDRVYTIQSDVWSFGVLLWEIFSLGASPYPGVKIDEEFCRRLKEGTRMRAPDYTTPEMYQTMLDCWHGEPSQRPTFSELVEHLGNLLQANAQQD
unphosphorylated VEGF-R2Δ50 (FLVK), sequence (P35968 with tags, fused parts or gaps DEL940-989/E990V limits assumed): as above
human FGF-R1, sequence (P11362 456-766 L457V/C488A/C584S): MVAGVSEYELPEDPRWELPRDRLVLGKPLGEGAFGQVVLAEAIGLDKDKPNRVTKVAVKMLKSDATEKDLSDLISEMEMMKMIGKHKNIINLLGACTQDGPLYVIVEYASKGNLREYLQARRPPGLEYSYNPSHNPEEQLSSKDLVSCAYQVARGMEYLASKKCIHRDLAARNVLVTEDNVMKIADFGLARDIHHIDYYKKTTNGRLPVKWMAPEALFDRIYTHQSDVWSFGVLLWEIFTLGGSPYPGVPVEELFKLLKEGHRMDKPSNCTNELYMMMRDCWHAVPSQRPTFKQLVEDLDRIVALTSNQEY
CDK4/Cyclin D3 complex, sequence (P11802 whole entry, the tested form may be a part): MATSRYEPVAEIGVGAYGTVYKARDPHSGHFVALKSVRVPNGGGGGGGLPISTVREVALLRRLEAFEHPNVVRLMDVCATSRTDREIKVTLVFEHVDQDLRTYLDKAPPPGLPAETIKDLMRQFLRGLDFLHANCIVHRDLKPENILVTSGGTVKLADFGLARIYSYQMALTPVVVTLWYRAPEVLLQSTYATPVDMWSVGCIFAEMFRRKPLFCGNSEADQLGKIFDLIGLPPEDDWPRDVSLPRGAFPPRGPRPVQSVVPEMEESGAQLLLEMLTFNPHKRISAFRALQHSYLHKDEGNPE
CDK4/Cyclin D3 complex, sequence (P30281 whole entry partner, the tested form may be a part): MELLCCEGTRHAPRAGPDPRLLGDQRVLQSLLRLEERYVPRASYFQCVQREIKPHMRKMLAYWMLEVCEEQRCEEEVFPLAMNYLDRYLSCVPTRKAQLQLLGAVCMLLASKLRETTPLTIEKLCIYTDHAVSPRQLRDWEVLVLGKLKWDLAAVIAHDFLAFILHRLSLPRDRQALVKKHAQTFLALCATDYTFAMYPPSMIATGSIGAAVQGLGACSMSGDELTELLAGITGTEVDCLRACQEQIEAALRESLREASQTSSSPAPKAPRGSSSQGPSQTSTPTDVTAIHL

| SMILES | pKi [2] | pKi [3] | also measured |
| --- | --- | --- | --- |
| C=CCOc1cc(-c2ccc3c(/C=C/c4ccc(OC)c(OC)c4)n[nH]c3c2)ccc1O [Example 1(c), 3-[E-2-(3,4-Dimethoxy-phenyl)vinyl]-6-(3-allyloxy-4-hydroxy-phenyl)-1H-indazole] | 8.85 | 8.33 | pKi (human CHK1 (FL-CHK1); Table 1, read-out: CHK-1 Ki): 7.11; pKi (CDK2/Cyclin A; Table 1): 6.25; pIC50 ([1]; read-out: HUVEC IC50): < 6.00; pKi (CDK4/Cyclin D3 complex): 6.17 |
| COc1cc(-c2ccc3c(-c4ccccc4)n[nH]c3c2)ccc1O [Example 2(b), 3-Phenyl-6-(3-methoxy-4-hydroxy-phenyl)-1H-indazole] | 6.52 | 6.37 | pKi (CDK2/Cyclin A; Table 1): 5.66; pKi (CDK4/Cyclin D3 complex): 5.10 |
| CC(=O)Nc1cccc(Oc2ccc3c(/C=C/c4ccccc4)n[nH]c3c2)c1 [Example 4(b), N-[3-(3-Styryl-1H-indazol-6-yloxy)-phenyl]-acetamide] | 8.57 | 8.72 | pKi (human FGF-R1): 7.31 |
| C(=C\c1n[nH]c2cc(Oc3ccccc3)ccc12)/c1ccccc1 [Example 8(a), 3-(E-Styryl)-6-phenoxy-1H-indazole] | 8.49 | 7.64 | pKi (human CHK1 (FL-CHK1); Table 1, read-out: CHK-1 Ki): 6.28; pKi (human FGF-R1): 7.38 |
| C(=C\c1n[nH]c2cc(Sc3ccccc3)ccc12)/c1ccccc1 [Example 8(c)] | 8.59 | 7.80 | pKi (human CHK1 (FL-CHK1); Table 1, read-out: CHK-1 Ki): < 5.00 |
| CC(=O)Nc1cccc(N(C)c2ccc3c(/C=C/c4ccccc4)n[nH]c3c2)c1 [Example 12(a), N-{3-[Methyl-(3-styryl-1H-indazol-6-yl)-amino]-phenyl}-acetamide] | 8.74 | 8.16 | % remain (HLM, 2 h) [4]: 59%; pKi (human FGF-R1): 7.72 |
| CN(c1cccc(NC(=O)c2ccccc2)c1)c1ccc2c(/C=C/c3ccccc3)n[nH]c2c1 [Example 12(b), N-{3-[Methyl-(3-styryl-1H-indazol-6-yl)-aimino]-phenyl}-benzamide] | 9.32 | 8.74 | pKi (human FGF-R1): 7.51 |
| CN(c1cccc(NC(=O)c2ccc(O)c(C(C)(C)C)c2)c1)c1ccc2c(/C=C/c3ccc4c(c3)OCO4)n[nH]c2c1 [Example 16(f)] |  | 8.55 |  |
| CC(=O)Nc1cccc(C(=O)c2ccc3c(/C=C/c4ccccc4)n[nH]c3c2)c1 [Example 19(a), N-[3-(3-Styryl-1H-indazole-6-carbonyl)-phenyl]-acetamide] | 7.86 | 8.17 |  |
| O=C(Nc1cccc(C(=O)c2ccc3c(/C=C/c4ccccc4)n[nH]c3c2)c1)c1ccccc1 [Example 19(b), N-[3-(3-Styryl-1H-indazole-6-carbonyl)-phenyl]-benzamide] | 9.31 | 8.18 | plasma half-life (T1/2) [5]: ∞ |
| O=C(Nc1cccc(C(=O)c2ccc3c(/C=C/c4ccccc4)n[nH]c3c2)c1)OCc1ccccc1 [Example 19(c)] |  | 8.23 |  |
| Cc1cncc(C(=O)Nc2cccc(C(=O)c3ccc4c(/C=C/c5ccccc5)n[nH]c4c3)c2)c1 [Example 19(e), 6-[3-(5-Methylpyridin-3-ylcarboxamido)benzoyl]-3-E-styryl-1H-indazole] |  | 7.70 |  |
| CC(C)C(=O)Nc1cccc(C(=O)c2ccc3c(/C=C/c4ccccc4)n[nH]c3c2)c1 [Example 19(h), 6-[3-(2-Methylpropionamido)benzoyl]-3-E-styryl-1H-indazole] |  | 8.23 |  |
| O=C(Nc1cccc(Sc2ccc3c(/C=C/c4ccccc4)n[nH]c3c2)c1)c1ccccc1 [Example 20(b), 6(3-(Benzoylamido)-phenylsulfanyl)-3-styryl-1H-indazole] | 8.80 | 8.10 |  |
| C=C(c1cccc(NC(=O)c2ncc(C)s2)c1)c1ccc2c(/C=C/c3ccccc3)n[nH]c2c1 [Example 22(a), 6-(1-(3-(5-Methyl-thiaxole-2-carboxoylamido)phenyl)-vinyl)-3-styryl-1H-indazole] | 9.66 | 9.70 |  |
| C=C(c1cccc(NC(=O)c2ccccc2)c1)c1ccc2c(/C=C/c3ccccc3)n[nH]c2c1 [Example 22(b), 6-(1-(3-(Benzoylamido)phenyl)-vinyl)-3-styryl-1H-indazole] | 9.20 | 8.92 |  |
| C=C(c1cccc(NC(C)=O)c1)c1ccc2c(/C=C/c3ccccc3)n[nH]c2c1 [Example 23, 6-(1-(3-Acetamido-phenyl)-vinyl)-3-styryl-1H-indazole] | 8.80 | 8.68 | % remain (HLM, 2 h) [4]: 74% |
| COc1cc(-c2ccc3c(-c4nc5ccccc5[nH]4)n[nH]c3c2)c(C)cc1O [Example 24(a), 4-[3-(1-H-Benzoimidazol-2-yl)-1-H-indazol-6-yl]-2-methoxy-5-methyl-phenol] |  | 7.01 | pKi (human CHK1 (FL-CHK1); Table 2): 7.55; pKi (CDK2/Cyclin A; Table 2): 7.77; pKi (CDK4/Cyclin D3 complex): 8.29 |
| Cc1cc(O)c(Cl)cc1-c1ccc2c(-c3nc4ccccc4[nH]3)n[nH]c2c1 [Example 24(c), 4-[3-(1-H-Benzoimidazol-2-yl)-1-H-indazol-6-yl]-2-chloro-5-methyl-phenol] |  | 7.85 | pKi (human CHK1 (FL-CHK1); Table 2): 7.36; pKi (CDK2/Cyclin A; Table 2): 8.47; pKi (CDK4/Cyclin D3 complex): 8.82 |
| COc1cc(O)ccc1-c1ccc2c(-c3nc4ccccc4[nH]3)n[nH]c2c1 [Example 24(d), 3-1H-Benzoimidazol-2-yl-6-(4-hydroxy-2-methoxyphenyl)-1H-indazole] |  | 6.90 | pKi (human CHK1 (FL-CHK1); Table 2): 7.25; pKi (CDK2/Cyclin A; Table 2): 7.08; pKi (CDK4/Cyclin D3 complex): 7.77 |
| Oc1ccc(-c2ccc3c(-c4nc5ccccc5[nH]4)n[nH]c3c2)c(Oc2ccccc2)c1 [Example 24(g), 3-1H-Benzoimidazol-2-yl-6-(2-phenoxy-4-hydroxyphenyl)-1H-indazole] |  | 6.71 | pKi (CDK2/Cyclin A; Table 2): 6.89; pKi (CDK4/Cyclin D3 complex): 7.54 |
| COc1cc(-c2ccc3c(/C=C/c4ccc(NC(=O)CN)cc4)n[nH]c3c2)ccc1O [Example 26, 6(4-Hydroxy-3-methoxyphenyl)-3-[E-2-(4-glycylamino-phenyl)-ethenyl]-1H-indazole] |  | 8.96 | pKi (human CHK1 (FL-CHK1); Table 1, read-out: CHK-1 Ki): 8.18; pKi (CDK2/Cyclin A; Table 1): 8.49 |
| CC(=O)N1CCC(C(=O)Nc2cccc(Oc3ccc4c(/C=C/c5ccc(Cl)cc5)n[nH]c4c3)c2)CC1 [Example 30(b), 6-[3-(1-Acetylpiperidin-4-ylcarboxamido)phenoxy]-3-E-[2-(4-chlorophenyl)ethenyl]-1H-indazole] |  | 8.66 |  |
| Nc1cccc(C(=O)c2ccc3c(/C=C/c4ccccn4)n[nH]c3c2)c1 [Example 40(a), 6(3-Amino-benzoyl)-3-E-[2-(pyridin-2-yl)ethenyl]-1H-indazole] |  | 7.75 |  |
| O=CNc1ccccc1/C=C/c1n[nH]c2cc(C(=O)c3cccc(NC(=O)c4ccccc4)c3)ccc12 [Example 43, 6-(3-Benzamidobenzoyl)-3-E-[2-(2-formamidophenyl)ethenyl]-1H-indazole] |  |  | pIC50 ([1]; + albumin, read-out: HUVEC + albumin IC50): 7.62; inhibition at 0.05 µM ([3]; read-out: FLVK-P % inhibition): 56% |
| Nc1cccc(Nc2ccc3c(/C=C/c4ccccc4)n[nH]c3c2)c1 [Example 46] |  | 8.46 |  |
